Activity calls are given as the source filed them.
Experiments:
[1] = viability loss in THP-1 monocytes – THP-1 cells, cytotoxicity control for Vif-APOBEC3G degradation inhibitor project, dose response (AID 1117359); assay type: functional; conditions: THP-1
[2] = biological target: Glutathione-S-transferase (Schistosoma japonicum, UniProt Q26513); test: GST-antibody interaction or FRET quenching – biochemical, TR-FRET, artefact control for Vif-APOBEC3G degradation inhibitor project, dose response (AID 1117362); assay type: functional
[3] = biological target: Solute carrier family 12 member 2/member 5 (Homo sapiens, UniProt P55011+Q9H2X9); test: KCC2 and NKCC1 inhibition by rubidium flux, cell-based, NKCC1 counter-screen (AID 1734); assay type: functional, HEK293
[4] = HIV-1 Vif–A3G interaction blockers – biochemical, TR-FRET, GST-Vif 1-94, biotin-A3G peptide, dose response retest, primary screen (AID 1117319); assay type: functional;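 also: TR-FRET signal of purified GST-Vif binding a biotinylated A3G peptide; inhibitors lower the FRET signal by blocking Vif and A3G binding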
[5] = biological target: NAD-dependent protein deacylase sirtuin-5, mitochondrial (Homo sapiens, UniProt Q9NXA8); test: sirtuin-5 deacylation blockers, concentration series – biochemical, fluorescence imaging, cherry-pick, set 5, dose response (AID 720591);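 also: desuccinylation of succinyl peptide AMC substrate read as fluorescence after trypsin release; potency of inhibitors that lower fluorescence and may act on trypsin instead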
[6] = A Cell Based Secondary Assay To Explore Cytotoxicity of Compounds that Sensitize Mycobacterium Tuberculosis to Beta-Lactam Antibiotics.; assay type: functional
[7] = viability loss in Vero cells – cytotoxicity control for Vif-APOBEC3G degradation inhibitor project, dose response (AID 1117358); assay type: functional; conditions: Vero
[8] = biological target: T1, Heat shock factor protein 1 (Mus musculus, UniProt P38532); test: enhancement of HSF1-driven luciferase signal – cell-based, NIH3T3, luminescence, dose retest, confirmation (AID 435004); assay type: functional;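 also: stress induced by proteasome inhibitor MG132 added 30 min after compound; luciferase reporter driven by HSF1 response element in NIH3T3 cells; actives raise luminescence as potentiators of the MG132 stress response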
T1 sequence (P38532 whole entry): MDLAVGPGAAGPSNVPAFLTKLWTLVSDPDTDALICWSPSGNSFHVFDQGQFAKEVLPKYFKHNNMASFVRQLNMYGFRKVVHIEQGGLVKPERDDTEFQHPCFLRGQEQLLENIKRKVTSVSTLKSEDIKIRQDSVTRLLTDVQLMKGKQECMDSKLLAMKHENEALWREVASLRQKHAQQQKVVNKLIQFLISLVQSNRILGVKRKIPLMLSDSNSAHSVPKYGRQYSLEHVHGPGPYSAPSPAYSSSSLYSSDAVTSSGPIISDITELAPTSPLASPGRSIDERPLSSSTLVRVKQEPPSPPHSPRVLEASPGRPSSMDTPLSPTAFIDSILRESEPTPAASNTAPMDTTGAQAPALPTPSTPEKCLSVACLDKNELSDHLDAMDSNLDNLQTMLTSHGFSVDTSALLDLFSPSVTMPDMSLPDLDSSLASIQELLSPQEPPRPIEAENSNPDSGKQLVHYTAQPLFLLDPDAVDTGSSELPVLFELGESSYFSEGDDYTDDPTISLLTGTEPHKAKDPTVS

[9] = viability loss in HepG2 liver cells – cell-based, ATP luminescence, cherry-pick, set 6, cytotoxicity control, dose response (AID 1053125); assay type: functional
cells [10] = conditions: A549
cells [11] = test: cells
[12] = miR-122 quantity in Huh7 after inhibitor exposure – cell-based, RT-qPCR, dry powder, orthogonal assay for miR-122 inhibitor project, dose response (AID 687041); assay type: functional
[13] = viability loss in MITF-independent A375 cells – cell-based, CellTiter-Glo luminescence, dry powder, set 7, counter-screen for MITF inhibitor project, dose response (AID 624490); assay type: functional; conditions: A-375
[14] = cytotoxicity in melanoma parental cells – cell-based, CellTiter-Glo, dry powder, set 6, MITF inhibitor project, dose response (AID 624429); assay type: functional; conditions: SK-MEL-5
[15] = MITF Orthogonal Assay: SK-MEL-5 CTG Assay Measured in Cell-Based System Using Plate Reader - 2084-02_Inhibitor_Dose_DryPowder_Activity_Set5.; assay type: functional
[16] = MITF Measured in Cell-Based System Using Plate Reader - 2084-01_Inhibitor_Dose_DryPowder_Activity_Set6.; assay type: functional
[17] = MITF Measured in Cell-Based System Using Plate Reader - 2084-01_Inhibitor_Dose_DryPowder_Activity_Set7.; assay type: functional
[18] = general mammalian cell viability loss – activator set, cherry-pick, cytotoxicity control for miR-122 modulator project, dose response (AID 720690); assay type: functional, cell-based;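 also: HEK293T human cells scored for general mammalian cytotoxicity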
[19] = viability loss in HEK293 kidney cells – cell-based, cherry-picks, set 5, cytotoxicity control, dose response (AID 1053117); assay type: functional
[20] = inhibition of fibronectin matrix deposition – AH1F cells, Alexa488-fibronectin fluorescence, cherry-pick, set 2, dose response (AID 1117283); assay type: functional, cell-based
[21] = biological target: Metabotropic glutamate receptor 5 (Rattus norvegicus, UniProt P31424); test: Identification of a glycine sulfonamide based non-MPEP site positive allosteric potentiator (PAM) of mGlu5 (calcium_assay).; assay type: functional
Phospholipase D2 [22] = biological target: T2, Phospholipase D2 (Homo sapiens, UniProt O14939); test: PLD2 Cellular Concentration Response Study.; assay type: functional
Phospholipase D2 [23] = biological target: T2, Phospholipase D2; test: Discovery of PLD2 inhibitors using the Purified Enzyme Concentration Response Assay.; assay type: functional
Phospholipase D1 [24] = biological target: T3, Phospholipase D1 (Homo sapiens, UniProt Q13393); test: PLD1 Cellular Concentration Response Study.; assay type: functional
T3 sequence (Q13393 whole entry): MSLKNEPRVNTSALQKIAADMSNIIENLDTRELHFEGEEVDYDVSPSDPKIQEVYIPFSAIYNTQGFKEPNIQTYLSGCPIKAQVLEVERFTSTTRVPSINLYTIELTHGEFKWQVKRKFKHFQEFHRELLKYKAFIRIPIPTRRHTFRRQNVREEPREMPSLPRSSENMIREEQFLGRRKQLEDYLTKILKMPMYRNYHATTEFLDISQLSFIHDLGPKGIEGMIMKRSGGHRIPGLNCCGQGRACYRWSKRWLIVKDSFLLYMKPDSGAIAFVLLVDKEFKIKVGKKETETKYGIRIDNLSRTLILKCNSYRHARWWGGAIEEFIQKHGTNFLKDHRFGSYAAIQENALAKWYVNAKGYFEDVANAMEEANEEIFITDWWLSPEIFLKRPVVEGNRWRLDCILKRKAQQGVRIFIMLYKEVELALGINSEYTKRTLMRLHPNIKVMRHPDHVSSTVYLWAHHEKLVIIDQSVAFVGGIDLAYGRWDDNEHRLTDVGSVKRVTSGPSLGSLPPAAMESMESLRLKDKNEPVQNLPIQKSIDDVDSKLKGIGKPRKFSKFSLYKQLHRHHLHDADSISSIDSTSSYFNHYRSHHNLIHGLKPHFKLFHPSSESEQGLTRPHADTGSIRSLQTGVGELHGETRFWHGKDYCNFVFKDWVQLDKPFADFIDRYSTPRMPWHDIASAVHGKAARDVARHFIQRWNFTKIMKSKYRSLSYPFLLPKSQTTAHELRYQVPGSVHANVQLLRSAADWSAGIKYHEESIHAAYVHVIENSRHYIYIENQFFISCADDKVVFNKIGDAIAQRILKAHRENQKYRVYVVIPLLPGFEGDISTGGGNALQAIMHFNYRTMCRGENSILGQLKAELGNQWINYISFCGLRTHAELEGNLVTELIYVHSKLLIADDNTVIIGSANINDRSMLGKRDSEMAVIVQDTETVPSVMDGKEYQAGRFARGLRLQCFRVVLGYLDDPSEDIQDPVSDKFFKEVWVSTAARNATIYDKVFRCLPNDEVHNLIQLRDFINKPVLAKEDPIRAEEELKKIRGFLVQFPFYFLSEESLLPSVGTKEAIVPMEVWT

Phospholipase D1 [25] = biological target: T3, Phospholipase D1; test: phospholipase D1 enzyme inhibition confirmation – biochemical, concentration response (AID 743390); assay type: functional
[26] = antimalarial activity against Dd2 parasites – SYBR Green fluorescence, erythrocytes, dry powder, set 2, dose response (AID 1159574); assay type: functional, cell-based
[27] = antifungal growth inhibition under osmotic support – sorbitol, alamar blue, dry powder, set 3, mechanism study for C. neoformans lysis project, dose response (AID 743304); assay type: functional, organism-based
cells [28] = conditions: HEK293
[29] = microbe, parasite or virus in culture; assay type: functional; conditions: Mycobacterium tuberculosis
[30] = Luminescence Cell-Based Dose Retest to Confirm Inhibitors of Cancer Stem Cells. [Related pubchem assays (depositor defined):AID2717, AID2721]; assay type: functional; conditions: Homo sapiens
[31] = CellTiter-Glo luminescence survival assay, SW480 colon tumor line, concentration-response curve, half-maximal inhibitory concentration (AID 1117338); assay type: functional
[32] = RKO cell viability reduction, dose response, CellTiter-Glo luminescence (AID 1117322); assay type: functional
[33] = cytotoxicity toward HCT116 cells – cell-based, CellTiter-Glo luminescence, IC50, dose response (AID 1117332); assay type: functional; conditions: HCT-116
[34] = SNU-C1 cell viability reduction, dose response, CellTiter-Glo luminescence (AID 1117323); assay type: functional, cell-based
[35] = cytotoxicity toward Colo320 cells – cell-based, CellTiter-Glo luminescence, IC50, dose response (AID 1117334); assay type: functional; conditions: COLO 320
[36] = cytotoxicity toward HT-29 cells – cell-based, CellTiter-Glo luminescence, IC50, dose response (AID 1117330); assay type: functional
[37] = Reduced DLD-1 viability, concentration-response, CellTiter-Glo luminescence (AID 1117352); assay type: functional
[38] = HCT116 cell viability decrease, GSK3B pretreatment – CellTiter-Glo, IC50, dose response (AID 1117339); assay type: functional; conditions: HCT-116

T2 sequence (O14939 whole entry): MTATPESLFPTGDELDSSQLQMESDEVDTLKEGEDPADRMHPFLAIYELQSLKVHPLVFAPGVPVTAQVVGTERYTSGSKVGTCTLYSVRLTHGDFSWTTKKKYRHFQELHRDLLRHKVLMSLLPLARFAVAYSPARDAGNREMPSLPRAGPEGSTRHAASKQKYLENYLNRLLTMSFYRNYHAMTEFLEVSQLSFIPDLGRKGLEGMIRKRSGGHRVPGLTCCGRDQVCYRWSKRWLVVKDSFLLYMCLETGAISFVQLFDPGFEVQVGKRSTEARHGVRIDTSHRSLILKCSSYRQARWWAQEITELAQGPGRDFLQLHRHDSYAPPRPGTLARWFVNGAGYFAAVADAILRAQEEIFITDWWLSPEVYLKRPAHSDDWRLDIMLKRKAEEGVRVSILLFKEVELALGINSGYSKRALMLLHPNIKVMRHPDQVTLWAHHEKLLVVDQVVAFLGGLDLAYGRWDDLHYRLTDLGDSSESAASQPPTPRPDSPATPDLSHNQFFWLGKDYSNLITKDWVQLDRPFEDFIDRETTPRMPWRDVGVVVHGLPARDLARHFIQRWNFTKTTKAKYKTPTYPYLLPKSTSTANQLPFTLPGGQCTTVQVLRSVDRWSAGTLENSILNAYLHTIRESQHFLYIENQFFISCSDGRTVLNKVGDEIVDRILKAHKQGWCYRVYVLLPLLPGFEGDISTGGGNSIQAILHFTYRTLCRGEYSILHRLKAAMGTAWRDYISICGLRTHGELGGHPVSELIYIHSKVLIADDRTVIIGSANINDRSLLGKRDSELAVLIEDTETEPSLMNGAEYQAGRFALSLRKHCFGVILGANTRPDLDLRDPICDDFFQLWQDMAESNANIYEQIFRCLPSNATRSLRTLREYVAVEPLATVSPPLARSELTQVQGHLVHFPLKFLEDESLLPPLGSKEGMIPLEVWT
Chain of Metabotropic glutamate receptor 5 (P31424 whole entry): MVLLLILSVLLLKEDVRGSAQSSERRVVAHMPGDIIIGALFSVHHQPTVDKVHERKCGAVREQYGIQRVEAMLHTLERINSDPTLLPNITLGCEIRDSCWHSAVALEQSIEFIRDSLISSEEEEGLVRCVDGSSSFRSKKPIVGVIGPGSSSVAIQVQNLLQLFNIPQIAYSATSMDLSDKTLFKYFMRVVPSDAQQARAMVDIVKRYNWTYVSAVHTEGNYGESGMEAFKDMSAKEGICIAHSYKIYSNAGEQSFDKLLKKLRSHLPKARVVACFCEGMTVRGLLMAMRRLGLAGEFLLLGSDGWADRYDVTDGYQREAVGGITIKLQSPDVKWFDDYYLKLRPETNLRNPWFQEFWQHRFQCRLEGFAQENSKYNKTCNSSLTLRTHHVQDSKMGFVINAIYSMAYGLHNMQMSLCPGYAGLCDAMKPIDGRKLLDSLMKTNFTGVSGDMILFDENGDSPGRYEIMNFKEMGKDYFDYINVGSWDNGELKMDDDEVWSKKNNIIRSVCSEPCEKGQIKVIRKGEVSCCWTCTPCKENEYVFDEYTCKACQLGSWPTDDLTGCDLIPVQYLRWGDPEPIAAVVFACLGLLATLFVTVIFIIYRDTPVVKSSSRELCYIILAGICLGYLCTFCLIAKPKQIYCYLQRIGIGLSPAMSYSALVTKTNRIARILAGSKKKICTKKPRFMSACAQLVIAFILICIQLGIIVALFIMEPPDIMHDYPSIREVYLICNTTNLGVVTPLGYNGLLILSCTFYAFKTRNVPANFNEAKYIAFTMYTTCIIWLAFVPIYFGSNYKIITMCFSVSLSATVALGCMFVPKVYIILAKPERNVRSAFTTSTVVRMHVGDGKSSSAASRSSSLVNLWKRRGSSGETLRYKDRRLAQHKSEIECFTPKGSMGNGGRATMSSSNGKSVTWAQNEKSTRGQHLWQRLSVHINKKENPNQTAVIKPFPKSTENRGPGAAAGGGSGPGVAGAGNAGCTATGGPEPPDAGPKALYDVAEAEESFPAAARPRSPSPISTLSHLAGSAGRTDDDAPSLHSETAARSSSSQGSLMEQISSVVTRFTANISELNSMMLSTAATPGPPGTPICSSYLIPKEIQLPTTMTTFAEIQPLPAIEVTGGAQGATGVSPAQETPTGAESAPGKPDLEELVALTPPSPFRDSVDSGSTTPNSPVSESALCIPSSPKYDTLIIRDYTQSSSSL
Chain of NAD-dependent protein deacylase sirtuin-5, mitochondrial (Q9NXA8 whole entry): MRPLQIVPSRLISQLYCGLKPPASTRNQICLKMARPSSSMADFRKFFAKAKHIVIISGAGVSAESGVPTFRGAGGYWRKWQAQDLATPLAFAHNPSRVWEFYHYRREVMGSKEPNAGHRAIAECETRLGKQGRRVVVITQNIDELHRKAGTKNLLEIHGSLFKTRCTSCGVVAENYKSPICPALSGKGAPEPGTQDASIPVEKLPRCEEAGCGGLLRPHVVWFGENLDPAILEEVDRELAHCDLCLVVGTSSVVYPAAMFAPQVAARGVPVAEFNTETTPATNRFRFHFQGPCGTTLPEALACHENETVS
Chain of Glutathione-S-transferase (Q26513 whole entry): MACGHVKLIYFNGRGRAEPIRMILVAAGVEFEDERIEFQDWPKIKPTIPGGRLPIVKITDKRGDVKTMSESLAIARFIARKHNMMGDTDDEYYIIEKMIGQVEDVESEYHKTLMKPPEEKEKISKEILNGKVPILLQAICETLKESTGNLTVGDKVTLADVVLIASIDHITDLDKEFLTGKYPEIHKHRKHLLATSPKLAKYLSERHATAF

## COc1ccc2c(c1)O[C@@H](c1ccc3c(c1)OCO3)[C@H](OC(=O)Nc1cc(OC)c(OC)c(OC)c1)C2=O
[1]
  CC50: 6.65 µM (active)
[2]
  IC50: > 100 µM (active)

## O=C(/C=C/c1ccccc1)Nc1scc(-c2ccccc2)c1C(=O)O
[3]
  IC50: 7.9 µM (active)

## O=C(Nc1c2c(nn1-c1ccc(F)cc1)C[S+]([O-])C2)C12CC3CC(CC(C3)C1)C2 (stereo not drawn)
[4]
  IC50: > 100 µM (active)

## CCC(C)(C)NC(=O)C(c1ccc(F)cc1)N(Cc1ccco1)C(=O)CCC(=O)Nc1ccccn1 (stereo not drawn)
[5]
  AC50: > 30 µM (inactive)

## O=C(NNC(=O)c1cc(OCC(F)(F)F)ccc1OCC(F)(F)F)c1cccc(C(F)(F)F)c1
[6]
  CC50: > 40 µM (active)
[7]
  CC50: > 40 µM (active)

## COc1ccc(C2C3=C(CCCC3=O)N(CC(=O)O)C3=C2C(=O)CCC3)cc1Cl
[8]
  EC50: > 260 µM (inactive)
[9]
  AC50: > 52 µM (inactive)
Cells [10]
  AC50: > 52 µM (inactive)
Cells [11]
  AC50: 2.66 µM (active)

## Cc1ccc(S(=O)(=O)Nc2ccc3c4c(cccc24)CC3)c(C)c1
[12]
  AC50: 0.567 µM (active)

## CNC1=CC(=O)c2ccccc2C1=O
[13]
  AC50: > 70 µM (inactive)
[14]
  AC50: 62.6 µM (active)
[15]
  AC50: 52.9 µM (active)
[16]
  AC50: 11.3 µM (active)
[17]
  AC50: 17.2 µM (active)

## CO[C@H]1CN(C)C(=O)c2cc(NC(=O)Nc3cc(Cl)cc(Cl)c3)ccc2OC[C@H](C)NC[C@@H]1C
[18]
  AC50: 16.9 µM (active)
[19]
  AC50: > 52 µM (inactive)
[20]
  AC50: > 70 µM (inactive)

## CS(=O)(=O)N(CC(=O)N1CCc2ccccc21)c1cc(C(F)(F)F)ccc1Cl
[21]
  EC50: 10 µM (inconclusive)

## O=C(NCCN1CCC2(CC1)C(=O)NCN2Cc1cccnc1)c1cc2ccccc2[nH]1
Phospholipase D2 [22]
  IC50: 0.05 µM (active)
Phospholipase D2 [23]
  IC50: 0.94 µM (active)
Phospholipase D1 [24]
  IC50: 3.59 µM (active)
Phospholipase D1 [25]
  IC50: 20 µM (active)

## O=C(c1ccccc1F)N1CC(=O)N2[C@H](CO)[C@H](c3ccc(-c4cccnc4)cc3)[C@@H]2C1
[26]
  AC50: > 39 µM (inactive)

## COCc1nc2ccccc2n1CCOc1ccc(C(C)(C)C)cc1
[27]
  AC50: 52.3 µM (active)
Cells [28]
  AC50: 34 µM (active)

## CC1=C(/C=C/C(C)=C/C=C/C(C)=C/C(=O)Nc2ccc(O)cc2)C(C)(C)CCC1 [FENRETINIDE]
[29]
  CC50: 14.4 µM (active)
[30]
  AC50: 1.04 µM (active)
[31]
  IC50: 4.85 µM (active)
[32]
  IC50: 1.72 µM (active)
[33]
  IC50: 5.3 µM (inactive)
[34]
  IC50: 6.69 µM (inactive)
[35]
  IC50: 3.24 µM (active)
[36]
  IC50: 2.12 µM (active)
[37]
  IC50: 9.49 µM (inactive)
[38]
  IC50: 4.95 µM (active)

From ChEMBL document CHEMBL1201862, “PubChem BioAssay data set” (2004)
